From ChEMBL document CHEMBL1201862, “PubChem BioAssay data set” (2004)
Activity calls are given as the source filed them.

How the values were obtained:
[1] = biological target: T1, Cysteine protease ATG4B (Homo sapiens, UniProt Q9Y4P1); assay type: functional;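 further: Fluorescence-based dose-response confirmation assay measuring inhibition of ATG4B activity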
T1 sequence (Q9Y4P1 whole entry): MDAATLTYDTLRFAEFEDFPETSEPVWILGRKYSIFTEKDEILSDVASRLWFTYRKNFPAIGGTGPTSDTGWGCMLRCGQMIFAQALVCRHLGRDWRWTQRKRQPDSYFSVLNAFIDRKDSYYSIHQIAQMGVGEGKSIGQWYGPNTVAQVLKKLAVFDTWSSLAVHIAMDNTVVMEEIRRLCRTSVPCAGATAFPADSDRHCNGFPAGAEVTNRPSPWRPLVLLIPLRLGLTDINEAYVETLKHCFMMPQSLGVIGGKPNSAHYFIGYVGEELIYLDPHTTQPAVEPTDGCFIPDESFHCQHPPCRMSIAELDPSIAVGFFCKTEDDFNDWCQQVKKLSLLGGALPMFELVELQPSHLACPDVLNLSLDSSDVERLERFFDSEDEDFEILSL

[2] = biological target: T2, Caspase-3 (Homo sapiens, UniProt P42574); test: caspase-3 enzyme inhibitors, selectivity check, dose response, selectivity assay for caspase-6 allosteric inhibitor project, biochemical, fluorescence, cherry-picked samples (AID 743291)
T2 sequence (P42574 whole entry): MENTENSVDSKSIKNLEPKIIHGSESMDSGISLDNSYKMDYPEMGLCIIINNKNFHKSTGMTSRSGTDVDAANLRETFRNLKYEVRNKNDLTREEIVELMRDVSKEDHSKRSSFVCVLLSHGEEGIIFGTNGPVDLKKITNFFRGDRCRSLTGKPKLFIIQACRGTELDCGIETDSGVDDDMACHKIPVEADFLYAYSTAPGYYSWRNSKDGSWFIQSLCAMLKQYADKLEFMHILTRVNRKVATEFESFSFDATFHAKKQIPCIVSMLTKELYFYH

[3] = biological target: T3, Caspase-7 (Homo sapiens, UniProt P55210); test: human caspase-7 inhibitors, dose response, selectivity assay for caspase-6 inhibitor project, biochemical, DEVD-R110 fluorescence, cherry-pick (AID 743295)
T3 sequence (P55210 whole entry): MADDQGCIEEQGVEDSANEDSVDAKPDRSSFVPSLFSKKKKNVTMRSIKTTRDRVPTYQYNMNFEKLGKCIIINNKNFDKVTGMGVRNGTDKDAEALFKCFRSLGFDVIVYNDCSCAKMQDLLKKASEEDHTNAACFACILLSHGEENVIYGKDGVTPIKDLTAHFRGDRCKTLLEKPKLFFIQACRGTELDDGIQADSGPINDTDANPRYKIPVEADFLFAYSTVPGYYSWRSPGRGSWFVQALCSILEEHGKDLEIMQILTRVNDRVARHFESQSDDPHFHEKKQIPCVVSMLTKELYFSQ

[4] = NIH-3T3 fibroblast cytotoxicity, dose response, cytotoxicity control, cell-based, fluorescence, Alamar Blue, secondary assay (AID 2327); assay type: functional;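 further: NIH-3T3 mouse fibroblasts cultured with fluconazole at 8 µg/mL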
[5] = Intein inhibitors as potential Tuberculosis drugs, a cytotoxicity screen. [Related pubchem assays (depositor defined):AID2221, AID2223, AID434968, AID435010, AID449749, AID449750, AID489010]; assay type: functional
[6] = biological target: T4, Protein RecA (Mycobacterium tuberculosis, UniProt P9WHJ3); test: Fluorescence Cell-Free Homogeneous Dose Retest to Identify Inhibitors of RecA-Intein Splicing Activity. [Related pubchem assays (depositor defined):AID2097, AID2223, AID489010, AID492950]; assay type: functional
T4 sequence (P9WHJ3 whole entry): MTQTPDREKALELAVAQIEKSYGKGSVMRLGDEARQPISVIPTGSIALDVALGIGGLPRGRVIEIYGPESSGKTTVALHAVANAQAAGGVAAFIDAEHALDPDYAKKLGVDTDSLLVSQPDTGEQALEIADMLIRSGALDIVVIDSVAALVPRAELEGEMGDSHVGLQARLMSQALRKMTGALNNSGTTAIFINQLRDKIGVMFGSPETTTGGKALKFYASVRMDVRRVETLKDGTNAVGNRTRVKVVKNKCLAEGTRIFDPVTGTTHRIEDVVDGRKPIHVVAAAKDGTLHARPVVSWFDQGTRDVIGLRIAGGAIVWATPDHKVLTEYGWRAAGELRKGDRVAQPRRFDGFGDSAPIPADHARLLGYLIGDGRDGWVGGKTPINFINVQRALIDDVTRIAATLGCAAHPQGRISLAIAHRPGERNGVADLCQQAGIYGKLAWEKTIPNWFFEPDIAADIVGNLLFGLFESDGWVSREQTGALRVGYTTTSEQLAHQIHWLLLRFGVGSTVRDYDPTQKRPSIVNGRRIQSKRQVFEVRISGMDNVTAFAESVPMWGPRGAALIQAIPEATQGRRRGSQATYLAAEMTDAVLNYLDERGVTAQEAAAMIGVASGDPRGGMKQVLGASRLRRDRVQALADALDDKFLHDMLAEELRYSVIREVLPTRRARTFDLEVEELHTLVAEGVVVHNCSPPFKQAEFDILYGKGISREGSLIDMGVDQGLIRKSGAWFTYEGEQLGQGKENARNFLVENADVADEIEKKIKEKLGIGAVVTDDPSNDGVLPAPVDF

[7] = biological target: T5, Replicative DNA helicase DnaB (Mycobacterium tuberculosis, UniProt P9WMR3); test: DnaB intein splicing inhibitors, dose response, biochemical, cell-free fluorescence (AID 449749); assay type: functional
T5 sequence (P9WMR3 whole entry): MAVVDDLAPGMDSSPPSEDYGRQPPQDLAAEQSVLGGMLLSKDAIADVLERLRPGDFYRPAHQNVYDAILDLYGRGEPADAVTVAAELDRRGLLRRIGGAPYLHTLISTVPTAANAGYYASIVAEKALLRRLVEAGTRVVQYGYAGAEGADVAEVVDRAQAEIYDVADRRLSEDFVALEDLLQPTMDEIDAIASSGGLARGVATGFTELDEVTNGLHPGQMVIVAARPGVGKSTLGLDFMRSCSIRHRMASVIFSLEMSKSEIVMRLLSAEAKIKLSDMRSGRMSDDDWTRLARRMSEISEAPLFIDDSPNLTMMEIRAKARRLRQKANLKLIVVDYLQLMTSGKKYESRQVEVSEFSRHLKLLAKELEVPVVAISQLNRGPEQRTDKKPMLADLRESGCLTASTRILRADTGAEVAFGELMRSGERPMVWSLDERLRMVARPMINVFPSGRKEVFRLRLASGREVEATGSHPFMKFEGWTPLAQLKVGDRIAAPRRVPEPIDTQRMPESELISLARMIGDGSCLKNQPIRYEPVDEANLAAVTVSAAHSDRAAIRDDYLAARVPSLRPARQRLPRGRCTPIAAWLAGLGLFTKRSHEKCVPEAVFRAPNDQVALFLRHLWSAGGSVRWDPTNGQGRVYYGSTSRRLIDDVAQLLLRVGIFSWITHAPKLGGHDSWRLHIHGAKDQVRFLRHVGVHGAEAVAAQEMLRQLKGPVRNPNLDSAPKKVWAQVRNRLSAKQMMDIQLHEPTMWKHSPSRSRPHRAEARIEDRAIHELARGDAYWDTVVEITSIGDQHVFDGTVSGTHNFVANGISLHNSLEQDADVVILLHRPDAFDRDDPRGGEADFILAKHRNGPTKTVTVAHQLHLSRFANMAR
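Wherever CC50 is given: cells exposed to compound for 72 hours before luminescence readout.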

Row | Structure (SMILES) | IC50 [1] | AC50 [2] | AC50 [3] | EC50 [4] | CC50 [5] | EC50 [6] | AC50 [7]
1 | COc1ccc(NS(=O)(=O)c2ccc3c(c2)[C@H]2C=CC[C@H]2[C@@H](c2ccc(C(=O)O)cc2)N3)cc1 | 5.28 µM (active) | 18.2 µM (active) | > 70 µM (inactive) | – | – | – | –
2 | CCC(=O)NC(c1ccc(OC)cc1)c1cc(Cl)c2cccnc2c1O (centres undefined) | – | – | – | 12.6 µM (inconclusive) | – | – | –
3 | Cn1nc(-c2ccccn2)nc2c(=O)n(C)c(=O)nc1-2 | 2.07 µM (active) | 6.73 µM (active) | 0.371 µM (active) | – | > 40 µM (active) | 0.0191 µM (active) | 0.573 µM (active)
4 | CCCCCCCCCCn1c2c(c(=N)c3c1CCC3)CCC2 | – | – | – | 26.1 µM (active) | 8.51 µM (active) | 1.83 µM (active) | 2.81 µM (active)
